Data taken from patent publication US20090186900A1, “COMPOUND” (priority 2006, published 2009).

Tests used:
[1] = system: rats; details: cited from earlier work
[2] = target: T1, E1-STS (Homo sapiens, UniProt P08842); details: intact MCF-7 cells, at 0.1 mM; cited from earlier work
T1 construct: endogenous in cells; host or cells: MCF-7 human breast cancer cells
T1 sequence (P08842 22-583): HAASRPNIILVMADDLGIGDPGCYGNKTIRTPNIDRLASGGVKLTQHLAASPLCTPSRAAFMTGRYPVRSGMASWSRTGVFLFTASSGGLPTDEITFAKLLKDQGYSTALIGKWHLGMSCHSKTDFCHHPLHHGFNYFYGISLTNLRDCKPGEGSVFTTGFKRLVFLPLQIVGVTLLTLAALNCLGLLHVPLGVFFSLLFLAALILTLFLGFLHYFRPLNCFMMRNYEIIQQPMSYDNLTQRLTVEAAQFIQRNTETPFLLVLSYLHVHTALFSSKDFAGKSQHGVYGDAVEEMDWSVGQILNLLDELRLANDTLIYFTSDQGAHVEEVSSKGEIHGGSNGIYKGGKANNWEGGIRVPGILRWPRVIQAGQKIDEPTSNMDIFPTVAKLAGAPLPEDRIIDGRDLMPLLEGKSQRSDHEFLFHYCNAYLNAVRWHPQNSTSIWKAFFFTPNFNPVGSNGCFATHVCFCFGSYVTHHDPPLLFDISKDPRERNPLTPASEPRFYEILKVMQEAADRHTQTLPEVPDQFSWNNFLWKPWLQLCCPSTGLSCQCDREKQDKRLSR

[3] = target: T2, DHA-STS (Rattus norvegicus, UniProt P15589); details: administered either orally or subcutaneously; cited from earlier work
T2 construct: from tissue; host or cells: rat liver
T2 sequence (P15589 20-577): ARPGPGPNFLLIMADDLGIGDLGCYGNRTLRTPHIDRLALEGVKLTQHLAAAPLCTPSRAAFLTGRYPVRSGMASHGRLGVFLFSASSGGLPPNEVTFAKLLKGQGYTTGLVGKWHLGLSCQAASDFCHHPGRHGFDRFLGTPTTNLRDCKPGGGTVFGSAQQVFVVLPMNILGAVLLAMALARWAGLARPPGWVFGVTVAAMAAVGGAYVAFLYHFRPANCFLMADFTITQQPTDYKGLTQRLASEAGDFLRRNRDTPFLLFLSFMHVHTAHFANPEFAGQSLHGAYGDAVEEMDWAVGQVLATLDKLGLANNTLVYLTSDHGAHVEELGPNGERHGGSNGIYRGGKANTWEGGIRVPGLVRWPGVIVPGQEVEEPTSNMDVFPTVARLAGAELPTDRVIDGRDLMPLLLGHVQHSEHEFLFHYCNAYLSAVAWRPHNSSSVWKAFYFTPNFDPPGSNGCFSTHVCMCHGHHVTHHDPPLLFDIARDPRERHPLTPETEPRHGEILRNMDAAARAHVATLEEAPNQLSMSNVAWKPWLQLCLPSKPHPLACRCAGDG

[4] = target: T3, rat liver E1-STS (Rattus norvegicus, UniProt P15589); details: administered either orally or subcutaneously; cited from earlier work
T3 construct: from tissue; host or cells: rat liver
T3 sequence (P15589 20-577): T2 sequence (P15589 20-577)

Row | Compound | melting point | also measured
1 | CCc1cc(-c2ccc(C(=O)CCC(=O)NCCO)cc2)ccc1O [Compound 37, 4-(3′-Ethyl-4′-hydroxy-biphenyl)-4-oxo-N-(2-hydroxyethyl)-butyramide] | > 110 °C (dec.) | 
2 | CCc1cc(-c2ccc(-c3ccn(C)n3)cc2)ccc1OC [Compound 45, 3-(3′-Ethyl-4′-methoxy-biphenyl-4-yl)-1-methyl-1H-pyrazole] | 167 to 170 °C | 
3 | CCc1cc(Oc2ccc(C(C)=O)cc2)ccc1OC [Compound 140, 1-(4-(3-Ethyl-4-methoxyphenoxy)phenyl)ethanone] | 53 to 56 °C | 
4 | CC(=O)c1ccc(Oc2ccc(O)cc2)cc1 [Compound 129, 1-(4-(4-Hydroxyphenoxy)phenyl)ethanone] | 159 to 161 °C | 
5 | CCc1cc(-c2ccc(-c3cc[nH]n3)cc2)ccc1OC [Compound 44, 3-(3′-Ethyl-4′-methoxy-biphenyl-4-yl)-1H-pyrazole] | 164 to 168 °C | 
6 | CC(=O)c1ccc(Oc2cccnc2)cc1 [Compound 135, 1-(4-(Pyridin-3-yloxy)phenyl)ethanone] | 45 to 50 °C | 
7 | C[C@]12CC[C@@H]3c4ccc(OS(N)(=O)=O)cc4CC[C@H]3[C@@H]1CCC2=O [EMATE, oestrone-3-sulphamate] |  | oral uterotrophic activity relative to oestradiol [1]: 100 times; inhibition of E1-STS activity [2]: more than 99%; inhibition of rat liver DHA-STS activity [3]: 99%; inhibition of rat liver E1-STS activity [4]: 99%
8 | CCc1cc(-c2ccc(-c3ccn(CC(=O)OC)n3)cc2)ccc1OC [Compound 48, [3-(3′-Ethyl-4′-methoxy-biphenyl-4-yl)-pyrazol-1-yl]-acetic Acid Methyl Ester] | 116 to 120 °C | 
9 | CCc1cc(-c2ccc(C(C)=O)cc2)ccc1OC [Compound 38, 1-(3′-Ethyl-4′-methoxy-biphenyl-4-yl)-ethanone] | 69 to 72 °C | 
10 | CCc1cc(-c2ccc(-c3ccnn3C)cc2)ccc1OC [Compound 46, 5-(3′-Ethyl-4′-methoxy-biphenyl-4-yl)-1-methyl-1H-pyrazole] | 97 to 100 °C | 
11 | CCc1cc(-c2ccc(-c3cc(CCC(=O)NCc4cccnc4)[nH]n3)cc2)ccc1O [Compound 66, 3-[5-(3′-Ethyl-4′-hydroxy-biphenyl-4-yl)-2H-pyrazol-3-yl]-N-pyridin-3-ylmethyl-propionamide] | 210 to 214 °C | 
12 | O=C(CCC(=O)c1ccc(Oc2ccc(O)cc2)cc1)NCc1cccnc1 [Compound 118, 4-(4-(4-Hydroxyphenoxy)phenyl)-4-oxo-N-((pyridin-3-yl)methyl)butanamide] | > 191 °C (dec.) | 
